Experimental data from patent publication US6610853B1, “N-(phenylsulfonyl)picolinamide derivatives, process for producing the same, and herbicide” (Kureha Kagaku Kogyo K.K., priority 2000, dated 2003).

Tests used:
Experiment in all cases: Test on herbicidal activity by foliar application
Format in all cases: in vivo
Conditions in all cases: foliar spray, 1 kg/ha, plants at 1-2 leaf stage in pots, evaluated 14 days after spraying
Abutilon theophrasti = test system: Abutilon theophrasti
Procedure: (§1) Test on Herbicidal Activity by Foliar Application: Herbicidal solutions of each test compounds, which were prepared by dissolving at predetermined concentrations such a wettable powder of the test compound as that described in the above Formulation Example, were sprayed at dosages of 1 kg/ha over foliar parts of Amaranthus retroflexus, Bidens pilosa, Sinapis arvensis, Stellaria media, Solanum nigrum, Abutilon theophrasti, Convolvulus arvensis, Matricaria chamomilla, Galium aparine, Veronica hederaefolia, and Setaria viridis (each test plant is 1-2 leaf stage) which were grown in pots. 14 days latter after spraying, its herbicidal activity was evaluated in accordance with the below-described system. Herbicidal Activity 1: less than 30% inhibition 2: 30% or more-50% inhibition 3: 50% or more-70% inhibition 4: 70% or more-90% inhibition 5: 90% or more inhibition

Amaranthus retroflexus = test system: Amaranthus retroflexus
Procedure: as §1

Bidens pilosa = test system: Bidens pilosa
Procedure: as §1

Convolvulus arvensis = test system: Convolvulus arvensis
Procedure: as §1

Galium aparine = test system: Galium aparine
Procedure: as §1

Matricaria chamomilla = test system: Matricaria chamomilla
Procedure: as §1

Setaria viridis = test system: Setaria viridis
Procedure: as §1

Sinapis arvensis = test system: Sinapis arvensis
Procedure: as §1

Solanum nigrum = test system: Solanum nigrum
Procedure: as §1

Stellaria media = test system: Stellaria media
Procedure: as §1

Veronica hederaefolia = test system: Veronica hederaefolia
Procedure: as §1

Compound: COc1ccc(C(=O)NS(=O)(=O)c2ccccc2C(F)(F)F)nc1 [Compound I-054, N-[(2-Trifluoromethylphenyl)sulfonyl]-5-methoxy-2-pyridinecarboxamide]
- Herbicidal activity, Abutilon theophrasti (Abutilon theophrasti): 2 (30% or more-50% inhibition)
- Herbicidal activity, Amaranthus retroflexus (Amaranthus retroflexus): 3 (50% or more-70% inhibition)
- Herbicidal activity, Bidens pilosa (Bidens pilosa): 5 (90% or more inhibition)
- Herbicidal activity, Convolvulus arvensis (Convolvulus arvensis): 3 (50% or more-70% inhibition)
- Herbicidal activity, Galium aparine (Galium aparine): 4 (70% or more-90% inhibition)
- Herbicidal activity, Matricaria chamomilla (Matricaria chamomilla): 5 (90% or more inhibition)
- Herbicidal activity, Setaria viridis (Setaria viridis): 5 (90% or more inhibition)
- Herbicidal activity, Sinapis arvensis (Sinapis arvensis): 5 (90% or more inhibition)
- Herbicidal activity, Solanum nigrum (Solanum nigrum): 4 (70% or more-90% inhibition)
- Herbicidal activity, Stellaria media (Stellaria media): 5 (90% or more inhibition)
- Herbicidal activity, Veronica hederaefolia (Veronica hederaefolia): 4 (70% or more-90% inhibition)

Compound: COC(=O)c1ccccc1S(=O)(=O)NC(=O)c1cc(Cl)cc(OC)n1 [Compound I-221, 2-[[[(4-Chloro-6-methoxypyridin-2-yl)carbonyl]-amino]sulfonyl]benzoic Acid Methyl Ester]
- Herbicidal activity, Abutilon theophrasti (Abutilon theophrasti): 4 (70% or more-90% inhibition)
- Herbicidal activity, Amaranthus retroflexus (Amaranthus retroflexus): 5 (90% or more inhibition)
- Herbicidal activity, Bidens pilosa (Bidens pilosa): 4 (70% or more-90% inhibition)
- Herbicidal activity, Convolvulus arvensis (Convolvulus arvensis): 4 (70% or more-90% inhibition)
- Herbicidal activity, Galium aparine (Galium aparine): 5 (90% or more inhibition)
- Herbicidal activity, Matricaria chamomilla (Matricaria chamomilla): 2 (30% or more-50% inhibition)
- Herbicidal activity, Setaria viridis (Setaria viridis): 3 (50% or more-70% inhibition)
- Herbicidal activity, Sinapis arvensis (Sinapis arvensis): 5 (90% or more inhibition)
- Herbicidal activity, Solanum nigrum (Solanum nigrum): 5 (90% or more inhibition)
- Herbicidal activity, Stellaria media (Stellaria media): 4 (70% or more-90% inhibition)
- Herbicidal activity, Veronica hederaefolia (Veronica hederaefolia): 4 (70% or more-90% inhibition)

Compound: COC(=O)c1ccccc1S(=O)(=O)NC(=O)c1cccc(Cl)n1 [Compound I-231, 2-[[[(6-Chloropyridin-2-yl)carbonyl]amino]-sulfonyl]benzoic Acid Methyl Ester]
- Herbicidal activity, Abutilon theophrasti (Abutilon theophrasti): 5 (90% or more inhibition)
- Herbicidal activity, Amaranthus retroflexus (Amaranthus retroflexus): 5 (90% or more inhibition)
- Herbicidal activity, Bidens pilosa (Bidens pilosa): 5 (90% or more inhibition)
- Herbicidal activity, Convolvulus arvensis (Convolvulus arvensis): 4 (70% or more-90% inhibition)
- Herbicidal activity, Galium aparine (Galium aparine): 5 (90% or more inhibition)
- Herbicidal activity, Matricaria chamomilla (Matricaria chamomilla): 5 (90% or more inhibition)
- Herbicidal activity, Setaria viridis (Setaria viridis): 5 (90% or more inhibition)
- Herbicidal activity, Sinapis arvensis (Sinapis arvensis): 5 (90% or more inhibition)
- Herbicidal activity, Solanum nigrum (Solanum nigrum): 5 (90% or more inhibition)
- Herbicidal activity, Stellaria media (Stellaria media): 5 (90% or more inhibition)
- Herbicidal activity, Veronica hederaefolia (Veronica hederaefolia): 5 (90% or more inhibition)

Compound: COC(=O)c1ccccc1S(=O)(=O)NC(=O)c1ccc(OC)cn1 [Compound I-234, 2-[[[(5-Methoxypyridin-2-yl)carbonyl]amino]-sulfonyl]benzoic Acid Methyl Ester]
- Herbicidal activity, Abutilon theophrasti (Abutilon theophrasti): 5 (90% or more inhibition)
- Herbicidal activity, Amaranthus retroflexus (Amaranthus retroflexus): 5 (90% or more inhibition)
- Herbicidal activity, Bidens pilosa (Bidens pilosa): 5 (90% or more inhibition)
- Herbicidal activity, Convolvulus arvensis (Convolvulus arvensis): 4 (70% or more-90% inhibition)
- Herbicidal activity, Galium aparine (Galium aparine): 4 (70% or more-90% inhibition)
- Herbicidal activity, Matricaria chamomilla (Matricaria chamomilla): 5 (90% or more inhibition)
- Herbicidal activity, Setaria viridis (Setaria viridis): 4 (70% or more-90% inhibition)
- Herbicidal activity, Sinapis arvensis (Sinapis arvensis): 5 (90% or more inhibition)
- Herbicidal activity, Solanum nigrum (Solanum nigrum): 5 (90% or more inhibition)
- Herbicidal activity, Stellaria media (Stellaria media): 5 (90% or more inhibition)
- Herbicidal activity, Veronica hederaefolia (Veronica hederaefolia): 4 (70% or more-90% inhibition)

Compound: COC(=O)c1ccccc1S(=O)(=O)NC(=O)c1cc(OC)cc(C)n1 [Compound I-254, 2-[[[(4-Methoxy-6-methylpyridin-2-yl)carbonyl]-amino]sulfonyl]benzoic Acid Methyl Ester]
- Herbicidal activity, Abutilon theophrasti (Abutilon theophrasti): 5 (90% or more inhibition)
- Herbicidal activity, Amaranthus retroflexus (Amaranthus retroflexus): 5 (90% or more inhibition)
- Herbicidal activity, Bidens pilosa (Bidens pilosa): 5 (90% or more inhibition)
- Herbicidal activity, Convolvulus arvensis (Convolvulus arvensis): 3 (50% or more-70% inhibition)
- Herbicidal activity, Galium aparine (Galium aparine): 5 (90% or more inhibition)
- Herbicidal activity, Matricaria chamomilla (Matricaria chamomilla): 3 (50% or more-70% inhibition)
- Herbicidal activity, Setaria viridis (Setaria viridis): 4 (70% or more-90% inhibition)
- Herbicidal activity, Sinapis arvensis (Sinapis arvensis): 5 (90% or more inhibition)
- Herbicidal activity, Solanum nigrum (Solanum nigrum): 5 (90% or more inhibition)
- Herbicidal activity, Stellaria media (Stellaria media): 5 (90% or more inhibition)
- Herbicidal activity, Veronica hederaefolia (Veronica hederaefolia): 5 (90% or more inhibition)

Compound: COC(=O)c1ccccc1S(=O)(=O)NC(=O)c1cc(OC)cc(Cl)n1 [Compound I-255, 2-[[[(6-Chloro-4-methoxypyridin-2-yl)carbonyl]-amino]sulfonyl]benzoic Acid Methyl Ester]
- Herbicidal activity, Abutilon theophrasti (Abutilon theophrasti): 5 (90% or more inhibition)
- Herbicidal activity, Amaranthus retroflexus (Amaranthus retroflexus): 4 (70% or more-90% inhibition)
- Herbicidal activity, Bidens pilosa (Bidens pilosa): 5 (90% or more inhibition)
- Herbicidal activity, Convolvulus arvensis (Convolvulus arvensis): 5 (90% or more inhibition)
- Herbicidal activity, Galium aparine (Galium aparine): 5 (90% or more inhibition)
- Herbicidal activity, Matricaria chamomilla (Matricaria chamomilla): 5 (90% or more inhibition)
- Herbicidal activity, Setaria viridis (Setaria viridis): 4 (70% or more-90% inhibition)
- Herbicidal activity, Sinapis arvensis (Sinapis arvensis): 5 (90% or more inhibition)
- Herbicidal activity, Solanum nigrum (Solanum nigrum): 5 (90% or more inhibition)
- Herbicidal activity, Stellaria media (Stellaria media): 5 (90% or more inhibition)
- Herbicidal activity, Veronica hederaefolia (Veronica hederaefolia): 5 (90% or more inhibition)

Compound: COC(=O)c1ccccc1S(=O)(=O)NC(=O)c1ccc(OC)c(Cl)n1 [Compound I-258, 2-[[[(6-Chloro-5-methoxypyridin-2-yl)carbonyl]-amino]sulfonyl]benzoic Acid Methyl Ester]
- Herbicidal activity, Abutilon theophrasti (Abutilon theophrasti): 5 (90% or more inhibition)
- Herbicidal activity, Amaranthus retroflexus (Amaranthus retroflexus): 5 (90% or more inhibition)
- Herbicidal activity, Bidens pilosa (Bidens pilosa): 5 (90% or more inhibition)
- Herbicidal activity, Convolvulus arvensis (Convolvulus arvensis): 5 (90% or more inhibition)
- Herbicidal activity, Galium aparine (Galium aparine): 5 (90% or more inhibition)
- Herbicidal activity, Matricaria chamomilla (Matricaria chamomilla): 5 (90% or more inhibition)
- Herbicidal activity, Setaria viridis (Setaria viridis): 5 (90% or more inhibition)
- Herbicidal activity, Sinapis arvensis (Sinapis arvensis): 5 (90% or more inhibition)
- Herbicidal activity, Solanum nigrum (Solanum nigrum): 5 (90% or more inhibition)
- Herbicidal activity, Stellaria media (Stellaria media): 5 (90% or more inhibition)
- Herbicidal activity, Veronica hederaefolia (Veronica hederaefolia): 4 (70% or more-90% inhibition)

Compound: COC(=O)c1ccccc1S(=O)(=O)NC(=O)c1ccc(OC)c(OC)n1 [Compound I-259, 2-[[[(5,6-Dimethoxypyridin-2-yl)carbonyl]-amino]sulfonyl]benzoic Acid Methyl Ester]
- Herbicidal activity, Abutilon theophrasti (Abutilon theophrasti): 5 (90% or more inhibition)
- Herbicidal activity, Amaranthus retroflexus (Amaranthus retroflexus): 5 (90% or more inhibition)
- Herbicidal activity, Bidens pilosa (Bidens pilosa): 4 (70% or more-90% inhibition)
- Herbicidal activity, Convolvulus arvensis (Convolvulus arvensis): 3 (50% or more-70% inhibition)
- Herbicidal activity, Galium aparine (Galium aparine): 5 (90% or more inhibition)
- Herbicidal activity, Matricaria chamomilla (Matricaria chamomilla): 4 (70% or more-90% inhibition)
- Herbicidal activity, Setaria viridis (Setaria viridis): 4 (70% or more-90% inhibition)
- Herbicidal activity, Sinapis arvensis (Sinapis arvensis): 5 (90% or more inhibition)
- Herbicidal activity, Solanum nigrum (Solanum nigrum): 4 (70% or more-90% inhibition)
- Herbicidal activity, Stellaria media (Stellaria media): 5 (90% or more inhibition)
- Herbicidal activity, Veronica hederaefolia (Veronica hederaefolia): 4 (70% or more-90% inhibition)

Compound: COC(=O)c1ccccc1S(=O)(=O)NC(=O)c1ccc(OC)c(Br)n1 [Compound I-265, 2-[[[(6-Bromo-5-methoxypyridin-2-yl)carbonyl]-amino]sulfonyl]benzoic acid methyl ester]
- Herbicidal activity, Abutilon theophrasti (Abutilon theophrasti): 5 (90% or more inhibition)
- Herbicidal activity, Amaranthus retroflexus (Amaranthus retroflexus): 5 (90% or more inhibition)
- Herbicidal activity, Bidens pilosa (Bidens pilosa): 5 (90% or more inhibition)
- Herbicidal activity, Convolvulus arvensis (Convolvulus arvensis): 3 (50% or more-70% inhibition)
- Herbicidal activity, Galium aparine (Galium aparine): 4 (70% or more-90% inhibition)
- Herbicidal activity, Matricaria chamomilla (Matricaria chamomilla): 5 (90% or more inhibition)
- Herbicidal activity, Setaria viridis (Setaria viridis): 4 (70% or more-90% inhibition)
- Herbicidal activity, Sinapis arvensis (Sinapis arvensis): 5 (90% or more inhibition)
- Herbicidal activity, Solanum nigrum (Solanum nigrum): 5 (90% or more inhibition)
- Herbicidal activity, Stellaria media (Stellaria media): 5 (90% or more inhibition)
- Herbicidal activity, Veronica hederaefolia (Veronica hederaefolia): 3 (50% or more-70% inhibition)

Compound: COc1cc(Cl)nc(C(=O)NS(=O)(=O)c2cccc(Cl)c2Cl)c1 [Compound I-345, N-[(2,3-Dichlorophenyl)sulfonyl]-6-chloro-4-methoxypyridine-2-carboxamide]
- Herbicidal activity, Abutilon theophrasti (Abutilon theophrasti): 2 (30% or more-50% inhibition)
- Herbicidal activity, Amaranthus retroflexus (Amaranthus retroflexus): 3 (50% or more-70% inhibition)
- Herbicidal activity, Bidens pilosa (Bidens pilosa): 5 (90% or more inhibition)
- Herbicidal activity, Convolvulus arvensis (Convolvulus arvensis): 5 (90% or more inhibition)
- Herbicidal activity, Galium aparine (Galium aparine): 4 (70% or more-90% inhibition)
- Herbicidal activity, Matricaria chamomilla (Matricaria chamomilla): 4 (70% or more-90% inhibition)
- Herbicidal activity, Setaria viridis (Setaria viridis): 2 (30% or more-50% inhibition)
- Herbicidal activity, Sinapis arvensis (Sinapis arvensis): 5 (90% or more inhibition)
- Herbicidal activity, Solanum nigrum (Solanum nigrum): 5 (90% or more inhibition)
- Herbicidal activity, Stellaria media (Stellaria media): 4 (70% or more-90% inhibition)
- Herbicidal activity, Veronica hederaefolia (Veronica hederaefolia): 3 (50% or more-70% inhibition)
